Patent US20100216751A1 (priority 2007, published 2010)

Target: human serum albumin (Homo sapiens, UniProt P02768)
Assay: Protein binding to human serum albumin
Assay type: in vitro ADME

human serum albumin, sequence (P02768 25-609): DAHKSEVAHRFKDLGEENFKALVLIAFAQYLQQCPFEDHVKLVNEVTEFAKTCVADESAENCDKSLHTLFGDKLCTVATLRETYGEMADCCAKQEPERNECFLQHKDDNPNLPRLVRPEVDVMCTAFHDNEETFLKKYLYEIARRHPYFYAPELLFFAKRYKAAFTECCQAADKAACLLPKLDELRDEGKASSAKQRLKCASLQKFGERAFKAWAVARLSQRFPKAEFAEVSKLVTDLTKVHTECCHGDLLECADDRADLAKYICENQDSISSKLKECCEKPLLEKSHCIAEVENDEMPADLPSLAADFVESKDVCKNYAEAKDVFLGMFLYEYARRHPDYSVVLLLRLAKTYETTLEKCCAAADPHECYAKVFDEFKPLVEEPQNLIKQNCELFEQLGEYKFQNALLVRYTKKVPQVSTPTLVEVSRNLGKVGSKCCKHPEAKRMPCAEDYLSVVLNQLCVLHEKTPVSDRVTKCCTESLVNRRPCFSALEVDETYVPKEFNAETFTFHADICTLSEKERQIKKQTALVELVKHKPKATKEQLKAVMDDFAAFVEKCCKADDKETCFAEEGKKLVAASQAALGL

Q: For `C=C(C)[C@@H]1CC[C@]2(C(=O)O)CC[C@]3(C)[C@H](CC[C@@H]4[C@@]5(C)CC[C@H](OC(=O)CC(C)(C)C(=O)O)C(C)(C)[C@@H]5CC[C@]43C)[C@@H]12` [Bevirimat, 3-O-(3′,3′-dimethylsuccinyl)betulinic acid], which fraction unbound is on record?
A: Its fraction unbound is ≤ 0.01.
